Earlier results on one substance are cited in patent US20250250278A2, “BRIARANE COMPOUNDS AND THEIR USE” (National Health Research Institutes, priority 2022, published 2025).

Series [1] has as its system inducible nitric oxide synthase (iNOS) mRNA. To be noted: LPS-challenged murine macrophages.
Experiment in series [2]: not given
This is another data set of the same source.

In series [3] the test system is cyclooxygenase-2 (COX-2) mRNA. To be noted: LPS-challenged murine macrophages.

Consider excavatolide B [ExcB], for which the bioavailability entry is listed as “low”. Besides, in series [1], the “inhibition of mRNA expression of iNOS” value is “significantly inhibiting”. Besides, the solubility in water result in series [2] is recorded as “poor”. Besides, the “inhibition of mRNA expression of COX-2” value in series [3] is listed as “significantly inhibiting”.
